From patent US11883387B2, “PqsR inverse agonists” (HELMHOLTZ-ZENTRUM FÜR INFEKTIONSFORSCHUNG GMBH, priority 2018, dated 2024)

What was measured:
[1] = Metabolic stability in mouse liver microsomes (MLM); type: in vitro ADME; settings: 1 μM compound, 0.5 mg/mL MLM, 1 mM NADPH, 37° C., read-out: half-life (t1/2) towards MLM
Protocol: For the evaluation of phase I metabolic stability, the compound (1 μM) was incubated with 0.5 mg/mL MLM (Corning) and 1 mM NADPH at 37° C. for 0, 5, 10, 15 and 30 min. The metabolic stability of Verapamil, Diphenhydramine and Benzydamine (1 μM each) were determined in parallel to confirm the enzymatic activity of the MLM. The incubation was stopped by addition of 2 volumes of acetonitrile containing internal standard (1 μM Leucine Enkephaline). Samples were centrifuged (15 min, 3,500 rpm). Concentration of the remaining test compound at the different time points was analyzed by HPLC-MS/MS and used to determine half-life (t1/2).

PqsR = PqsR (Pseudomonas aeruginosa, UniProt Q9I4X0); assay: E. coli based β-galactosidase reporter gene assay (PqsR inverse agonistic activity); type: cell-based; design: expressed in transfected cells; host or cells: Escherichia coli DH5α
Outline: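 E. coli DH5α carrying pEAL08-2 (tac-driven pqsR with pqsA-lacZ) was grown to OD600 0.2 and incubated with 0.001–10 μM compound plus 50 nM PQS for 2.5 h at 37 °C. β-Galactosidase activity was measured by ONPG conversion in permeabilized cells and normalized between the no-PQS and solvent controls. IC50 came from concentration variation.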

[2] = test system: P. aeruginosa pyocyanin production; assay: Pyocyanin assay; type: cell-based, P. aeruginosa PA14; settings: Pseudomonas aeruginosa, PA14, 16 h, read-out: IC50-value towards pyocyanin production, PA14 in PPGAS medium, 16 h
Protocol: Inhibition of P. aeruginosa pyocyanin production by compounds was determined photometrically as described before.[20] In short, an overnight culture of PA14 in PPGAS medium was washed, diluted in medium to a start OD600 of 0.02, and incubated for 16 h (37° C., 200 rpm, relative humidity 75%) in the presence of test compounds. Then, cultures were extracted with chloroform and re-extracted with 0.2 M HCl. Protonated red colored pyocyanin was determined by measuring OD520 and normalizing to OD600.

[3] = Kinetic Turbidimetric Aqueous Solubility at room temperature for 5 min; type: physicochemical; settings: PBS buffer, kinetic from dmso stock, 2% DMSO
Protocol: Kinetic Turbidimetric Aqueous Solubility at room temperature for 5 min. Test compound was diluted in PBS buffer to give a range of concentrations (typically 0.4, 2, 4, 20, 40, 100, and 200 μM, final DMSO concentration 2%) and incubated at room temperature for 5 min. Absorbance was measured at a wavelength of 620 nm and the solubility was estimated from the concentration of test compound that produces an increase in absorbance above the vehicle control (i.e., […]). Data was analyzed by fitting a four parameter sigmoidal function to the measured and normalized absorbances and AUC calculation providing access to Log S (decadic logarithm of the solubility).

Chain of PqsR (Q9I4X0 whole entry): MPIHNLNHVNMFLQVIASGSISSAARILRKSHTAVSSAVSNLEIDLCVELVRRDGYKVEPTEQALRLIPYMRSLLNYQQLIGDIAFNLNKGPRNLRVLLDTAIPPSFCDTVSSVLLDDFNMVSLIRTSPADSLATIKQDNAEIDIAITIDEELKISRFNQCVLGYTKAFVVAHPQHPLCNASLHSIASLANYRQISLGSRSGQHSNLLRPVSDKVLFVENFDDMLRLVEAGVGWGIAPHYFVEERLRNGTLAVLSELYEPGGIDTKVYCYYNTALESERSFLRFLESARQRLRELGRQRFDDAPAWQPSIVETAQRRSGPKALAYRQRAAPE

Compound | half-life at 1 μM [1] | IC50 (PqsR) | IC50 [2] | solubility at 5 min [3]
FC(F)(F)c1cc(NCc2cn(-c3ccc(Oc4cccc(Cl)c4)cc3)nn2)ccn1 [Compound 030, N-((1-(4-(3-Chlorophenoxy)phenyl)-1H-1,2,3-triazol-4-yl)methyl)-2-(trifluoromethyl)pyridin-4-amine] | > 1 h | ≤ 50 nM | – | –
FC(F)(F)c1cc(NCc2cn(-c3ccc(Oc4ccccc4)cc3)nn2)cc(Cl)n1 [Compound 032, 2-Chloro-N-((1-(4-phenoxyphenyl)-1H-1,2,3-triazol-4-yl)methyl)-6-(trifluoromethyl)pyridin-4-amine] | > 1 h | ≤ 50 nM | – | –
CC(C)Oc1ccc(-n2cc(CNc3ccnc(C(F)(F)F)c3)nn2)cc1Cl [Compound 036, N-((1-(3-Chloro-4-isopropoxyphenyl)-1H-1,2,3-triazol-4-yl)methyl)-2-(trifluoromethyl)pyridin-4-amine] | – | ≤ 50 nM | ≤ 250 nM | > 25 µM
CC(C)Oc1ccc(-n2cc(CNc3cc(Cl)nc(C(F)(F)F)c3)nn2)cc1Cl [Compound 042, 2-Chloro-N-((1-(3-chloro-4-isopropoxyphenyl)-1H-1,2,3-triazol-4-yl)methyl)-6-(trifluoromethyl)pyridin-4-amine] | – | ≤ 50 nM | ≤ 250 nM | > 10 µM
FC(F)(F)c1cc(NCc2cn(-c3ccc(OC4CCC4)c(Cl)c3)nn2)ccn1 [Compound 047, N-((1-(3-chloro-4-cyclobutoxyphenyl)-1H-1,2,3-triazol-4-yl)methyl)-2-(trifluoromethyl)pyridin-4-amine] | – | ≤ 50 nM | ≤ 250 nM | > 25 µM
N#Cc1cc(NCc2cn(-c3ccc(Oc4ccccc4)cc3)nn2)cc(Cl)n1 [Compound 051, 6-Chloro-4-(((1-(4-phenoxyphenyl)-1H-1,2,3-triazol-4-yl)methyl)amino)picolinonitrile] | – | ≤ 50 nM | ≤ 250 nM | > 50 µM
COc1ccc(-c2ncc(CNc3ccnc(C(F)(F)F)c3)s2)cc1C [Compound 074, N-((2-(4-Methoxy-3-methylphenyl)thiazol-5-yl)methyl)-2-(trifluoromethyl)pyridin-4-amine] | – | 51 to 250 nM | 251 to 1000 nM | > 25 µM
FC(F)(F)c1cc(NCc2ncc(-c3ccc(Oc4ccccc4)cc3)s2)ccn1 [Compound 078, N-((5-(4-Phenoxyphenyl)thiazol-2-yl)methyl)-2-(trifluoromethyl)pyridin-4-amine] | – | ≤ 50 nM | ≤ 250 nM | > 10 µM
FC(F)(F)c1cc(NCc2nnc(-c3ccc(Oc4ccccc4)cc3)[nH]2)ccn1 [Compound 095, N-((5-(4-Phenoxyphenyl)-4H-1,2,4-triazol-3-yl)methyl)-2-(trifluoromethyl)pyridin-4-amine] | – | 51 to 250 nM | 251 to 1000 nM | > 25 µM
FC(F)(F)c1cc(NCc2cc(-c3ccc(Oc4ccccc4)cc3)n[nH]2)ccn1 [Compound 096, N-((3-(4-Phenoxyphenyl)-1H-pyrazol-5-yl)methyl)-2-(trifluoromethyl)pyridin-4-amine] | – | 51 to 250 nM | 251 to 1000 nM | > 10 µM
COc1ccc(-c2ccc(CNc3ccnc(C(F)(F)F)c3)nc2)cc1Cl [Compound 104, N-((5-(3-Chloro-4-methoxyphenyl)pyridin-2-yl)methyl)-2-(trifluoromethyl)pyridin-4-amine] | – | 51 to 250 nM | 1000 to 5000 nM | > 10 µM
FC(F)(F)c1cc(NCc2cnc(-c3ccc(C4CC4)cc3)nc2)ccn1 [Compound 107, N-((2-(4-Cyclopropylphenyl)pyrimidin-5-yl)methyl)-2-(trifluoromethyl)pyridin-4-amine] | – | 51 to 250 nM | 251 to 1000 nM | > 10 µM
FC(F)(F)c1cc(SCc2ccc(-c3ccc(Cl)nc3)cn2)ccn1 [Compound 112, 6-Chloro-6′-(((2-(trifluoromethyl)pyridin-4-yl)thio)methyl)-3,3′-bipyridine] | – | 51 to 250 nM | 1000 to 5000 nM | > 25 µM
FC(F)(F)c1cc(SCc2nc3cc(Cl)c(Cl)cc3[nH]2)ccn1 [Compound 119, 5,6-Dichloro-2-(((2-(trifluoromethyl)pyridin-4-yl)thio)methyl)-1H-benzo[d]imidazole] | – | 51 to 250 nM | 1000 to 5000 nM | > 25 µM
Fc1cccc(Oc2ccc(-n3cc(CNc4ccnc(C(F)(F)F)c4)nn3)cc2)c1 [Compound 145, N-((1-(4-(3-fluorophenoxy)phenyl)-1H-1,2,3-triazol-4-yl)methyl)-2-(trifluoromethyl)pyridin-4-amine] | – | ≤ 50 nM | ≤ 250 nM | > 25 µM
FC(F)(F)c1cc(NCc2cn(-c3ccc(OC4CCOC4)c(Cl)c3)nn2)ccn1 (stereo not drawn) [Compound 153, N-((1-(3-chloro-4-((tetrahydrofuran-3-yl)oxy)phenyl)-1H-1,2,3-triazol-4-yl)methyl)-2-(trifluoromethyl)pyridin-4-amine] | – | ≤ 50 nM | 251 to 1000 nM | > 25 µM
FC(F)(F)c1cc(NCc2cn(-c3ccc(OC4CC4)c(Cl)c3)nn2)ccn1 [Compound 154, N-((1-(3-chloro-4-cyclopropoxyphenyl)-1H-1,2,3-triazol-4-yl)methyl)-2-(trifluoromethyl)pyridin-4-amine] | – | ≤ 50 nM | 251 to 1000 nM | > 10 µM
CC(C)Oc1ccc(-n2cc(CNc3ccnc([N+](=O)[O-])c3)nn2)cc1Cl [Compound 157, N-((1-(3-chloro-4-isopropoxyphenyl)-1H-1,2,3-triazol-4-yl)methyl)-2-nitropyridin-4-amine] | – | ≤ 50 nM | ≤ 250 nM | > 10 µM
CC(C)Oc1ccc(-c2ncc(CNc3cc(Cl)nc(C(F)(F)F)c3)s2)cc1 [Compound 161, 2-Chloro-N-((2-(4-isopropoxyphenyl)thiazol-5-yl)methyl)-6-(trifluoromethyl)pyridin-4-amine] | – | ≤ 50 nM | ≤ 250 nM | > 25 µM
CC(C)Oc1ccc(-c2ncc(CNc3cc(Cl)nc(C(F)(F)F)c3)cn2)cc1Cl [Compound 166] | – | ≤ 50 nM | ≤ 250 nM | > 25 µM
N#Cc1cc(SCc2nc3cc(Oc4ccccc4)ccc3[nH]2)ccn1 [Compound 175, 4-(((5-phenoxy-1H-benzo[d]imidazol-2-yl)methyl)thio)picolinonitrile] | – | – | 251 to 1000 nM | > 25 µM
FC(F)(F)c1cc(SCc2nc3cc(Sc4ccccc4)ccc3[nH]2)ccn1 [Compound 176, 5-(phenylthio)-2-(((2-(trifluoromethyl)pyridin-4-yl)thio)methyl)-1H-benzo[d]imidazole] | – | ≤ 50 nM | 251 to 1000 nM | > 10 µM
FC(F)(F)c1cc(OCc2nc3cc(Oc4ccccc4)ccc3[nH]2)ccn1 [Compound 177, 5-phenoxy-2-(((2-(trifluoromethyl)pyridin-4-yl)oxy)methyl)-1H-benzo[d]imidazole] | – | 251 to 1000 nM | 1000 to 5000 nM | > 25 µM
COC(=O)c1ccc(Oc2ccc3[nH]c(CSc4ccnc(C(F)(F)F)c4)nc3c2)cc1 [Compound 179, methyl 4-((2-(((2-(trifluoromethyl)pyridin-4-yl)thio)methyl)-1H-benzo[d]imidazol-5-yl)oxy)benzonate] | – | 251 to 1000 nM | 1000 to 5000 nM | > 10 µM
Fc1cc2nc(CSc3ccnc(C(F)(F)F)c3)[nH]c2cc1Cl [Compound 180, 6-chloro-5-fluoro-2-(((2-(trifluoromethyl)pyridin-4-yl)thio)methyl)-1H-benzo[d]imidazole] | – | 251 to 1000 nM | 1000 to 5000 nM | > 50 µM
FC(F)(F)c1cc(NCc2nc3cc(Oc4ccccc4)ccc3[nH]2)ccn1 [Compound 182, N-((5-phenoxy-1H-benzo[d]imidazol-2-yl)methyl)-2-(trifluoromethyl)pyridin-4-amine] | – | ≤ 50 nM | 251 to 1000 nM | > 50 µM
Nc1cc(SCc2nc3cc(Oc4ccccc4)ccc3[nH]2)cc(C(F)(F)F)n1 [Compound 183, 4-(((5-phenoxy-1H-benzo[d]imidazol-2-yl)methyl)thio)-6-(trifluoromethyl)pyridin-2-amine] | – | ≤ 50 nM | ≤ 250 nM | > 25 µM
